Columns and labels:
TP21 gene = test: qRT-PCR of TP21 in SKOV3 cells; format: cell-based, human; conditions: SKOV3 parental (p53 null) and R273H m-p53 cells; SHetA2 10 µM, PRIMA-1 20 µM, 16 h
p53 [1] = test: p53 cellular localization in hFTSECs; format: cell-based, human; conditions: 24 h
Description: (§1) Cytoplasmic and nuclear protein fractions were isolated from cultures using NE-PER Nuclear and Cytoplasmic Extraction Reagents (ThermoFisher, Waltham, MA, USA) and the Mitochondria/Cytosol Fractionation Kit (ThermoFisher, Waltham, MA, USA) and protein concentrations determined with BCA reagent (ThermoFisher, Waltham, MA, USA).
(§2) Proteins were extracted from cell cultures using M-PER mammalian protein extraction reagent (ThermoFisher, Waltham, MA, USA) and volumes corresponding to 30 µg determined with BCA reagent (ThermoFisher, Waltham, MA, USA) were electrophoresed into a SDS-PAGE gel and transferred to PVDF membranes. Membranes were blocked (5% dry skim milk powder in TBST buffer) for at least 1 h or overnight, washed thrice with TBST and then incubated with primary antibody: p53 DO-1, β-actin, histone H3, GAPDH (Santa Cruz Biotechnology, Dallas, TX, USA) and mortalin, Tom20, V5 tag antibodies, p21, PARP, SLC7A11, caspase 3 (Cell Signaling Technology, Danvers, MA, USA) for at least 1 h or overnight. After three washes, membranes were incubated with anti-mouse HRP conjugated (Santa Cruz Biotechnology, Dallas, TX, USA) or anti-Rabbit HRP conjugated (Cell Signaling Technology, Danvers, MA, USA) for 40 min. Membranes then were washed and developed with ECL reagents (BioRad, Hercules, CA, USA). Bands were imaged and quantified (ChemiDoc imaging system with Image Lab Software/BioRad). […]

NCI 60-cell line panel = conditions: cited from earlier work
[2] = test system: MESOV human ovarian cancer cells; test: Tumor establishment after intraperitoneal injection of MESOV cells (secondary chemoprevention model); format: in vivo; conditions: nu/nu mice, MESOV i.p.
Description: Four-week-old female athymic nude mice (NCr-Foxn1^nu) were obtained from Taconic Biosciences under an approved Institutional Animal Care and Use Committee (IACUC) protocol. Mice were acclimatized for two weeks, fed with a standard diet and ear tagged during the acclimatization period. The timing to tumor development after intraperitoneal injection with various amounts of MESOV cells was determined in a pilot study prior. In the intervention experiment, 6-week-old mice were injected with 20 million MESOV human ovarian cancer cells in their intraperitoneal region. Drug treatment was initiated 4 weeks after the injection of cancer cells. Mice were randomized to four treatment groups before the start of treatment based on their body weight. There was no significant (one-way ANOVA, p >0.999) difference in body weight between groups at the start of treatment. Twelve mice were allocated to each group based on the power analysis performed while designing experiment. […] Controls were gavaged with Kolliphor HS15 (30% in water). […] (10 mg/kg) was dissolved in phosphate buffered saline and injected into the peritoneum of mice every other day. Initially SHetA2 dosing was administered every day for two weeks in SHetA2 alone and drug combination groups, and then switched to every other day for the next three weeks due to the stress caused to the mice by daily gavage. Oral gavaging was performed with sterile disposable plastic feeding tubes 20 ga × 38 mm (Instech Laboratories, Inc., Plymouth Meeting, PA, USA). Three mice in the drug combination group died after two weeks of drug treatment due to gavaging incidents. Body weights were recorded and animal health was monitored weekly. After the end of drug intervention period, all mice were euthanized by CO2 asphyxiation followed by exsanguination, their tumors and other vital organs were collected for further analysis. After measuring the total tumor weight, a portion of the tumors were snap frozen in liquid nitrogen and another portion was formalin fixed. The formalin fixed tissue samples were paraffin embedded, sectioned and stained with hematoxylin and eosins for histology studies. An experienced pathologist reviewed blinded histology slides for kidney and liver toxicity. Presence or absence of tumor at the end of the treatment period was used as the primary outcome measure. […] Two by two logistic regression was used to compare the four treatment groups (Untreated control, SHetA2, […] combination) in the study. Mice in the first 3 groups had complete data, while 3 mice in the combo group died early and had zero tumor weights. […]

[3] = test system: SiHa cervical cancer cell line xenograft; test: SiHa xenograft tumor growth; format: in vivo, mice; conditions: gavage 60 mg/kg SHetA2, 100 mg/kg palbociclib or the combination every other day
From the text: FIG. 49. […] Controls were gavaged with the same Kolliphor HS15 used to suspend the drugs. Using a generalized estimating equations (GEE) model to analyze tumor growth treated as a continuous variable, there was a significant additive effect of SHetA2 (p<0.001) and palbociclib (p<0.001) on day 65 of treatment. This additive effect between SHetA2 (p=0.001) and palbociclib (p=0.051) was trending significant at day 63 of treatment. Additionally, SHetA2 starts to show significant tumor suppressing activity as early as day 63 of treatment (p=0.045).

p53 [4] = test: p53 cellular localization (immunofluorescence, Western blots of fractions) in ovarian cancer cell lines; format: cell-based, human; conditions: A2780 and OV90 ovarian cancer cell lines
Description: as §1, §2

## CC1(C)CC(C)(C)c2cc(NC(=S)Nc3ccc([N+](=O)[O-])cc3)ccc2S1 [SHetA2]
TP21 gene
  TP21 transcription (qRT-PCR): induced TP21 transcription
p53 [1]
  p53 cellular localization: minimal effects on p53 cellular localization
NCI 60-cell line panel
  Activity against cancer cell lines: active against all cancers present in the NCI 60-cell line panel
[2]
  OR for preventing tumor development (additive logistic regression model): 10.384
[2]; SHetA2 60 mg/kg gavage, PRIMA-1^MET 10 mg/kg i.p., treatment from day 28 for 38 days
  Tumor-free rates: 42%
[3]
  SiHa xenograft tumor growth: significantly reduce SiHa cervical cancer cell line xenograft tumor growth
p53 [4]
  p53 in nuclei (immunofluorescent imaging): dose-dependent elevation of both wild type and mutant p53 in nuclei
